Where two headings read alike, the source gives them in different places.
Key:
Assay type in all cases: in vivo
[1] = system: Brown Marmorated Stink Bug (Halyomorpha halys); experiment: B.13 Brown marmorated stink bug, spray; conditions: 120 h, read-out: mortality in comparison with untreated controls
Method: B.13 Brown Marmorated Stink Bug (Halyomorpha halys)
The active compound was dissolved at the desired concentration in a mixture of 1:1 (vol:vol) distilled water:acetone. Surfactant (Kinetic HV) was added at a rate of 0.01% (vol/vol). The test solution was prepared at the day of use.
Row peanuts and soybean seeds were placed into microwavable plastic cups and inoculated with five adult stage H. halys. Using a hand atomizer, approximately 1 ml solution is sprayed into each cup, insects and food present. A water source was provided (cotton wick with water) Each treatment is replicated 4-fold. Assay arenas are kept at about 25° C. Percent mortality was recorded after 5 days.

[2] = system: Green Peach Aphid (Myzus persicae); experiment: B.2 Green peach aphid, artificial diet, systemic; conditions: 72 h, read-out: mortality in comparison with untreated controls
In short: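 Adult aphids (5-8 per well) fed through a membrane on artificial diet containing compound formulated in 75% water/25% DMSO, with two replications per concentration. Incubation lasted 3 days at about 23±1° C and 50±5% relative humidity. Mortality and fecundity were then assessed visually.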

[3] = system: Silverleaf Whitefly (Bemisia argentifolii); experiment: CE.4 Silverleaf whitefly, comparative test; conditions: 72 h, read-out: % mortality in comparison to untreated controls
Method: (§1) The tables show % mortality in comparison to untreated controls.
CE.4 Silverleaf Whitefly (Bemisia argentifolii)
The active compounds were formulated in 50:50 acetone:water (vol:vol) and 100 ppm Kinetica™ surfactant.
Selected cotton plants were grown to the cotyledon state (one plant per pot). The cotyledons were dipped into the test solution to provide complete coverage of the foliage and placed in a well-vented area to dry. Each pot with treated seedling was placed in a plastic cup and 10 to 12 whitefly adults (approximately 3-5 day old) were introduced. The insects were collected using an aspirator and a Tygon® tubing connected to a barrier pipette tip. The tip, containing the collected insects, was then gently inserted into the soil containing the treated plant, allowing insects to crawl out of the tip to reach the foliage for feeding. The cups were covered with a reusable screened lid. Test plants were maintained in the holding room at about 25° C. and about 20-40% relative humidity for 3 days avoiding direct exposure to the fluorescent light (24 hour photoperiod) to prevent trapping of heat inside the cup. Mortality was assessed 3 days after treatment of the plants.

[4] = system: Diamond back moth (Plutella xylostella); experiment: B.1 Diamond back moth, cabbage leaf dip; conditions: foliar, read-out: mortality in comparison with untreated controls
In short: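 Cabbage leaves were dipped in compound in 1:1 water:acetone with 0.01% surfactant, air-dried and infested with ten 3rd-instar larvae. Mortality and feeding damage (0–100% scale) were scored 72 h after treatment.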

[5] = system: Southern Armyworm (Spodoptera eridania); experiment: B.10 Southern armyworm, sprayed lima bean plants; conditions: 96 h, read-out: mortality in comparison with untreated controls
Method: B.10 Southern Armyworm (Spodoptera eridania)
The active compounds were formulated in cyclohexanone as a 10,000 ppm solution supplied in tubes. The tubes were inserted into an automated electrostatic sprayer equipped with an atomizing nozzle and they served as stock solutions for which lower dilutions were made in 50% acetone:50% water (v/v). A nonionic surfactant (Kinetic®) was included in the solution at a volume of 0.01% (v/v).
Lima bean plants (variety Sieva) were grown 2 plants to a pot and selected for treatment at the 1st true leaf stage. Test solutions were sprayed onto the foliage by an automated electrostatic plant sprayer equipped with an atomizing spray nozzle. The plants were dried in the sprayer fume hood and then removed from the sprayer. Each pot was placed into perforated plastic bags with a zip closure. About 10 to 11 armyworm larvae were placed into the bag and the bags zipped closed. Test plants were maintained in a growth room at about 250C and about 20-40% relative humidity for 4 days, avoiding direct exposure to fluorescent light (24 hour photoperiod) to prevent trapping of heat inside the bags. Mortality and reduced feeding were assessed 4 days after treatment, compared to untreated control plants.

[6] = system: Cowpea Aphid (Aphis Craccivora); experiment: CE.1 Cowpea aphid, comparative test; conditions: read-out: % mortality in comparison to untreated controls
Method: as §1
CE.1 Cowpea Aphid (Aphis Craccivora)
Potted cowpea plants colonized with approximately 100-150 aphids of various stages were sprayed after the pest population has been recorded. Population reduction was assessed after 24, 72, and 120 hours.

[7] = system: Rice Brown Plant Hopper (Nilaparvata lugens); experiment: CE.2 Rice brown plant hopper, comparative test; conditions: 10 ppm, after 72 hours, read-out: % mortality in comparison to untreated controls
Method: as §1
CE.2 Rice Brown Plant Hopper (Nilaparvata lugens)
Rice seedlings were cleaned and washed 24 hours before spraying. The active compounds were formulated in 50:50 acetone:water (vol:vol) and 0.1% vol/vol surfactant (EL 620) was added. Potted rice seedlings were sprayed with 5 ml test solution, air dried, placed in cages and inoculated with 10 adults. Treated rice plants were kept at about 28-29° C. and relative humidity of about 50-60%. Percent mortality was recorded after 72 hours.

[8] = system: Orchid Thrips (Dichromothrips Corbetti); experiment: CE.3 Orchid thrips, comparative test; conditions: 96 h, 10 ppm, after 4 days, read-out: % mortality in comparison to untreated controls
In short: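 Orchid flower petals were dipped in 300 ppm compound in 1:1 acetone:water plus 0.01% v/v surfactant and dried, then caged with 10-15 lab-colony adults. Live thrips were counted after 4 days, and % mortality was derived from pre-treatment numbers relative to untreated controls.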

| SMILES | mortality at 100 ppm [1] [%] | mortality at 2500 ppm [2] [%] | mortality at 10 ppm [3] [%] | mortality at 300 ppm ([4]; 72 h) [%] | mortality at 10 ppm [5] [%] | mortality at 10 ppm [6] [%] | mortality at 300 ppm [5] [%] | mortality at 10 ppm [7] [%] | mortality at 10 ppm [8] [%] | mortality at 2500 ppm ([2]; 2500 ppm, adult aphids on treated diet, 3 days) [%] | mortality at 300 ppm ([4]; 300 ppm, cabbage leaf dip, 3rd instar larvae, 72 hours after treatment) [%] | mortality at 10 ppm ([6]; 10 ppm, sprayed cowpea plants) [%] |
| --- | --- | --- | --- | --- | --- | --- | --- | --- | --- | --- | --- | --- |
| CN1C(=O)CC(NC(=O)c2ccc(C3=NOC(c4cc(Cl)c(F)c(Cl)c4)(C(F)(F)F)C3)cc2Cl)C1=O (stereo not drawn) [Compound I-1-2, 2-Chloro-4-[5-(3,5-dichloro-4-fluoro-phenyl)-5-(trifluoromethyl)-4H-isoxazol-3-yl]-N-(1-methyl-2,5-dioxo-pyrrolidin-3-yl)benzamide] | > 75 | > 75 | 88 | > 75 | > 75 | – | – | – | – | – | – | – |
| CCN1C(=O)CC(NC(=O)c2ccc(C3=NOC(c4cc(Cl)c(F)c(Cl)c4)(C(F)(F)F)C3)cc2Cl)C1=O (stereo not drawn) [Compound I-1-3] | > 75 | > 75 | 75 | > 75 | > 75 | – | – | – | – | – | – | – |
| CN1C(=O)CC(NC(=O)c2ccc(C3=NOC(c4cc(Cl)c(F)c(Cl)c4)(C(F)(F)F)C3)c3c2CCC3)C1=O (stereo not drawn) [Compound I-1-10] | – | > 75 | – | > 75 | > 75 | – | – | – | – | – | – | – |
| CN1C(=O)C[C@@H](NC(=O)c2ccc(C3=NOC(c4cc(Cl)c(F)c(Cl)c4)(C(F)(F)F)C3)cc2Cl)C1=O (stereo partly drawn) [Compound I-1-13] | > 75 | > 75 | – | > 75 | > 75 | 90 | > 75 | – | – | – | – | – |
| CCN1C(=O)C[C@@H](NC(=O)c2ccc(C3=NOC(c4ccc(F)c(Cl)c4)(C(F)(F)F)C3)cc2Cl)C1=O (stereo partly drawn) [Compound I-1-53] | – | – | – | – | – | – | – | 75 | 100 | > 75 | > 75 | 100 |

— patent US20200190073A1, “SUBSTITUTED SUCCINIMIDE DERIVATIVES AS PESTICIDES” (BASF SE, priority 2017, published 2020)
